In patent publication US9549560B2, “Pesticidal compositions and related methods” (DOW AGROSCIENCES LLC, priority 2013, dated 2017):

Experiments:
[1] = tested on: Green Peach Aphid (Myzus persicae); assay: Bioassay for Green Peach Aphid (GPA) (MYZUPE), foliar spray on cabbage seedlings; assay type: in vivo; settings: 72 h, 200 ppm foliar spray, graded after three days, Abbott corrected % control, read-out: % Control (or Mortality) rating, GPA
Method: Cabbage seedlings grown in 3-inch pots, with 2-3 small (3-5 cm) true leaves, were used as test substrate. The seedlings were infested with 20-50 GPA (wingless adult and nymph stages) one day prior to chemical application. Four pots with individual seedlings were used for each treatment. Test compounds (2 mg) were dissolved in 2 mL of acetone/methanol (1:1) solvent, forming stock solutions of 1000 ppm test compound. The stock solutions were diluted 5× with 0.025% Tween 20 in H2O to obtain the solution at 200 ppm test compound. A hand-held aspirator-type sprayer was used for spraying a solution to both sides of […] leaves until runoff. Reference plants (solvent check) were sprayed with the diluent only containing 20% by volume of acetone/methanol (1:1) solvent. Treated plants were held in a holding room for three days at approximately 25° C. and ambient relative humidity (RH) prior to grading. Evaluation was conducted by counting the number of live aphids per plant under a microscope. Percent control was measured by using Abbott's correction formula (W. S. Abbott, “A Method of Computing the Effectiveness of an Insecticide,” J. Econ. Entomol. 18 (1925), pp. 265-267) as follows. Corrected % Control=100*(X−Y)/X
X=No. of live aphids on solvent check plants and
Y=No. of live aphids on treated plants
(§1) Biological Data for Green Peach Aphid (GPA) (MYZUPE) and Sweetpotato Whitefly-crawler (WF) (BEMITA)” (See Table Section).

[2] = tested on: Sweetpotato Whitefly-Crawler (Bemisia tabaci); assay: Insecticidal test for Sweetpotato Whitefly-Crawler (WF) (BEMITA) in foliar spray assay on cotton plants; assay type: in vivo; settings: 216 h, 200 ppm foliar spray, graded after 9 days, Abbott corrected % control, read-out: % Control (or Mortality) rating, WF
Method: Cotton plants (Gossypium hirsutum) grown in 3-inch pots, with 1 small (4-5 cm) true leaves, were used as test substrate. The plants were infested with 200-400 whitefly eggs 4-5 days prior to chemical application. Four pots with individual plants were used for each treatment. Test compounds (2 mg) were dissolved in 1 mL of acetone solvent, forming stock solutions of 2000 ppm test compound. The stock solutions were diluted 10× with 0.025% Tween 20 in H2O (diluents) to obtain the solution at 200 ppm test compound. A hand-held aspirator-type sprayer was used for spraying a solution to both sides of cotton leaves until runoff. Reference plants (solvent check) were sprayed with the diluent only containing 10% by volume of acetone solvent. Treated plants were held in a holding room for 9 days at approximately 25° C. and ambient relative humidity (RH) prior to grading. Evaluation was conducted by counting the number of live 3-4 nymph stage per plant under a microscope. Percent control was measured by using Abbott's correction formula (W. S. Abbott, “A Method of Computing the Effectiveness of an Insecticide,” J. Econ. Entomol. 18 (1925), pp. 265-267) as follows. Corrected % Control=100*(X−Y)/X
X=No. of live nymphs on solvent check plants and
Y=No. of live nymphs on treated plants.
as §1

## CCN(C(=O)CC[S+]([O-])CCC(F)(F)F)c1cn(-c2cc(F)c[n+]([O-])c2)nc1Cl (centres unmarked) [Compound P37, 3-(3-Chloro-4-(N-ethyl-3-((3,3,3-trilluoropropyl)sulfinyl)propanamido)-1H-pyrazol-1-yl)-5-fluoropyridine 1-oxide]
[1]
  mortality at 200 ppm: 80 to 100%
[2]
  mortality at 200 ppm: 80 to 100%

## CC(CSCCC(F)(F)F)C(=O)N(C)c1cn(-c2ccc[n+]([O-])c2)nc1Cl (centres unmarked) [FA5, 3-(3-Chloro-4-(N,2-dimethyl-3-((3,3,3-trifluoropropyl)thio)propanamido)-1H-pyrazol-1-yl)pyridine 1-oxide]
[1]
  mortality at 200 ppm: 80 to 100%
[2]
  mortality at 200 ppm: 80 to 100%

## CCN(C(=O)C(C)C[S+]([O-])CCC(F)(F)F)c1cn(-c2cc(F)c[n+]([O-])c2)nc1Cl (centres unmarked) [FA6, 3-(3-Chloro-4-(N-ethyl-2-methyl-3-((3,3,3-trifluoropropyl)sulfinyl)propanamido)-1H-pyrazol-1-yl)-5-fluoropyridine 1-oxide]
[1]
  mortality at 200 ppm: 80 to 100%
[2]
  mortality at 200 ppm: 80 to 100%

## CCN(C(=O)CCSCC(F)(F)F)c1cn(-c2ccc[n+]([O-])c2)nc1Cl [Compound P50, 3-(3-chloro-4-(N-ethyl-3-((2,2,2-trifluoroethyl)thio)propanamido)-1H-pyrazol-1-yl)pyridine 1-oxide]
[1]
  mortality at 200 ppm: 80 to 100%
[2]
  mortality at 200 ppm: 80 to 100%

## CN(C(=O)CC[S+]([O-])CC1CC1(F)F)c1cn(-c2ccc[n+]([O-])c2)nc1Cl (centres unmarked) [Compound P57, 3-(3-Chloro-4-(3-(((2,2-difluorocyclopropyl)methyl)sulfinyl)-N-methylpropanamido)-1H-pyrazol-1-yl)pyridine 1-oxide]
[1]
  mortality at 200 ppm: 80 to 100%
[2]
  mortality at 200 ppm: 80 to 100%

## C#CCN(C(=O)C(C)C[S+]([O-])CCC(F)(F)F)c1cn(-c2ccc[n+]([O-])c2)nc1Cl (centres unmarked) [FA7, 3-(3-Chloro-4-(2-methyl-N-(prop-2-yn-1-yl)-3-((3,3,3-trifluoropropyl)sulfinyl)propanamido)-1H-pyrazol-1-yl)pyridine 1-oxide]
[1]
  mortality at 200 ppm: 80 to 100%
[2]
  mortality at 200 ppm: 80 to 100%

## CCN(C(=O)C(C)CSCCC(F)(F)F)c1cn(-c2ccc[n+]([O-])c2)nc1Cl (centres unmarked) [FA3, 3-(3-Chloro-4-(N-ethyl-2-methyl-3-((3,3,3-trifluoropropyl)thio)propanamido)-1H-pyrazol-1-yl)pyridine 1-oxide]
[1]
  mortality at 200 ppm: 80 to 100%
[2]
  mortality at 200 ppm: 80 to 100%

## C#CCN(C(=O)CC[S+]([O-])CCCC(F)(F)F)c1cn(-c2ccc[n+]([O-])c2)nc1Cl (centres unmarked) [Compound P72, 3-(3-Chloro-4-(N-(prop-2-yn-1-yl)-3-((4,4,4-trifluorobutyl)sulfinyl)propanamido)-1H-pyrazol-1-yl)pyridine 1-oxide]
[1]
  mortality at 200 ppm: 80 to 100%
[2]
  mortality at 200 ppm: 80 to 100%

## CCN(C(=O)CCSCCC(F)(F)F)c1cn(-c2cc(F)c[n+]([O-])c2)nc1Cl [Compound P36, 3-(3-Chloro-4-(N-ethyl-3-((3,3,3-trilluoropropyl)thio)propanamido)-1H-pyrazol-1-yl)-5-fluoropyridine 1-oxide]
[1]
  mortality at 200 ppm: 80 to 100%
[2]
  mortality at 200 ppm: 80 to 100%

## C#CCN(C(=O)CCSCCCC(F)(F)F)c1cn(-c2ccc[n+]([O-])c2)nc1Cl [Compound P71, 3-(3-Chloro-4-(N-(prop-2-yn-1-yl)-3-((4,4,4-trifluorobutyl)thio)propanamido)-1H-pyrazol-1-yl)pyridine 1-oxide]
[1]
  mortality at 200 ppm: 80 to 100%
[2]
  mortality at 200 ppm: 80 to 100%

## CCN(C(=O)CC[S+]([O-])CCCC(F)(F)F)c1cn(-c2ccc[n+]([O-])c2)nc1Cl (centres unmarked) [Compound P54, 3-(3-Chloro-4-(N-ethyl-3-((4,4,4-trilluorobutyl)sulfinyl)propanamido)-1H-pyrazol-1-yl)pyridine 1-oxide]
[1]
  mortality at 200 ppm: 80 to 100%
[2]
  mortality at 200 ppm: 80 to 100%

## CCN(C(=O)C(C)CS(C)(=O)=O)c1cn(-c2ccc[n+]([O-])c2)nc1C (centres unmarked) [Compound F4, 3-(4-(N-ethyl-2-methyl-3-(methylsulfonyl)propanamido)-3-methyl-1H-pyrazol-1-yl)pyridine-1-oxide]
[1]
  mortality at 200 ppm: 80 to 100%
[2]
  mortality at 200 ppm: 80 to 100%

## CC(C[S+]([O-])CCC(F)(F)F)C(=O)N(C)c1cn(-c2ccc[n+]([O-])c2)nc1Cl (centres unmarked) [FA8, 3-(3-Chloro-4-(N,2-dimethyl-3-((3,3,3-trifluoropropyl)sulfinyl)propanamido)-1H-pyrazol-1-yl)pyridine 1-oxide]
[1]
  mortality at 200 ppm: 80 to 100%
[2]
  mortality at 200 ppm: 80 to 100%

## CCN(C(=O)CCS(=O)(=O)CCC(F)(F)F)c1cn(-c2ccc[n+]([O-])c2)nc1Cl [Compound F13, 3-(3-chloro-4-(N-ethyl-3-((3,3,3-trifluoropropyl)sulfonyl)propanamido)-1H-pyrazol-1-yl)pyridine 1-oxide]
[1]
  mortality at 200 ppm: 80 to 100%
[2]
  mortality at 200 ppm: 80 to 100%

## C#CCN(C(=O)CC[S+]([O-])CCC(F)(F)F)c1cn(-c2ccc[n+]([O-])c2)nc1Cl (centres unmarked) [Compound P10, 3-(3-chloro-4-(N-(prop-2-yn-1-yl)-3-((3,3,3-trifluoropropyl)sulfinyl)propanamido)-1H-pyrazol-1-yl)pyridine 1-oxide]
[1]
  mortality at 200 ppm: 80 to 100%
[2]
  mortality at 200 ppm: 80 to 100%

## C#CCN(C(=O)CC[S+]([O-])CC1CC1(F)F)c1cn(-c2ccc[n+]([O-])c2)nc1Cl (centres unmarked) [Compound P66, 3-(3-Chloro-4-(3-(((2,2-difluorocyclopropyl)methyl)sulfinyl)-N-(prop-2-yn-1-yl)propanamido)-1H-pyrazol-1-yl)pyridine 1-oxide]
[1]
  mortality at 200 ppm: 80 to 100%
[2]
  mortality at 200 ppm: 80 to 100%

## CCNc1cn(-c2cc(F)c[n+]([O-])c2)nc1Cl [CA4, 3-(3-Chloro-4-(ethylamino)-1H-pyrazol-1-yl)-5-fluoropyridine 1-oxide]
[1]
  mortality at 200 ppm: 0 to 80%
[2]
  mortality at 200 ppm: 0 to 80%

## CCN(C(=O)CCSCC1CC1(F)F)c1cn(-c2ccc[n+]([O-])c2)nc1C (centres unmarked) [Compound P74, 3-(4-(3-(((2,2-Difluorocyclopropyl)methyl)thio)-N-ethylpropanamido)-3-methyl-1H-pyrazol-1-yl)pyridine 1-oxide]
[1]
  mortality at 200 ppm: 80 to 100%
[2]
  mortality at 200 ppm: 80 to 100%

## CCNc1cn(-c2ccc[n+]([O-])c2)nc1Cl [Compound C1, 3-(3-chloro-4-(ethylamino)-1H-pyrazol-1-yl)pyridine 1-oxide]
[1]
  mortality at 200 ppm: 0 to 80%
[2]
  mortality at 200 ppm: 0 to 80%

## CCN(C(=O)CC[S+]([O-])CCC(F)(F)F)c1cn(-c2ccc[n+]([O-])c2)nc1Cl (centres unmarked) [Compound F1, 3-(3-chloro-4-(N-ethyl-3-((3,3,3-trifluoropropyl)sulfinyl)propanamido)-1H-pyrazol-1-yl)pyridine 1-oxide]
[1]
  mortality at 200 ppm: 80 to 100%
[2]
  mortality at 200 ppm: 80 to 100%

## CCN(C(=O)C(C)C[S+]([O-])CCC(F)(F)F)c1cn(-c2ccc[n+]([O-])c2)nc1Cl (centres unmarked) [FA9, 3-(3-Chloro-4-(N-ethyl-2-methyl-3-((3,3,3-trifluoropropyl)sulfinyl)propanamido)-1H-pyrazol-1-yl)pyridine 1-oxide]
[1]
  mortality at 200 ppm: 80 to 100%
[2]
  mortality at 200 ppm: 80 to 100%

## CCN(C(=O)C(C)S(C)(=O)=O)c1cn(-c2ccc[n+]([O-])c2)nc1Cl (centres unmarked) [FA13, 3-(3-chloro-4-(N-ethyl-2-(methylsulfonyl)propanamido)-1H-pyrazol-1-yl)pyridine 1-oxide]
[1]
  mortality at 200 ppm: 80 to 100%

## CC(C(=O)N(CC1CC1)c1cn(-c2ccc[n+]([O-])c2)nc1Cl)S(C)(=O)=O (centres unmarked) [FA14, 3-(3-chloro-4-(N-(cyclopropylmethyl)-2-(methylsulfonyl)propanamido)-1H-pyrazol-1-yl)pyridine 1-oxide]
[1]
  mortality at 200 ppm: 80 to 100%
